Results reported in patent US20220409643A1, “ROR Gamma T Inhibitors and Topical Uses Thereof” (Dermira, inc., priority 2019, published 2022).

What was measured:
[1] = system: imiquimod (IMQ)-induced psoriasis in mice; test: IMQ-induced psoriasis in mice, topical treatment; format: in vivo; conditions: 0.05% topical clobetasol cream, 10% body surface area
Excerpt: Topical application of imiquimod (IMQ), a TLR7/8 ligand and potent immune activator, is applied to the shaved backs and ears of mice to induce psoriasis. Information on the murine model of IMQ-induced psoriasis can be found at van der Fits L, Mourits S, Voerman JS, Kant M, Boon L, Laman JD, et al. Imiquimod-induced psoriasis-like skin inflammation in mice is mediated via the IL-23/IL-17 axis. J Immunol. 2009; 182:5836-45, which is hereby incorporated by reference in its entirety. Following administration of IMQ, mice ears and skin are observed for erythema, occurrence of scales and thickness after a period of six days. One group of mice were administered 0.05% topical clobetasol cream (10% body surface area), a potent topical steroid, as a positive control, and one group of mice received topical vehicle lacking Compoun 1 (10% body surface area), and one group was administered Compound 1 (3% formulation)(10% body surface area).
The mice were evaluated for erythema, presence of scales, thickness of ear tissue and body weight following administration of the treatments described above. Erythema and scales are determined by comparing the mice to a reference for color and severity of scaling.

[2] = system: Th17 associated genes; test: expression of Th17 associated genes in skin by real-time quantitative reverse transcription PCR; format: cell-based; conditions: skin harvested 24 hours after induction of inflammation
Experimental: Studies were carried out to determine the effect of two RORγt inhibitors of the present disclosure (i.e., Compound 1 and Compound 2, prepared in formulation as described in Example 1) on Th17 associated genes. Skin was harvested from subjects 24 hours after induction of inflammation. The RNA from the samples were isolated, and expression of the genes were quantified through real-time quantitative reverse transcription PCR. Clobetasol was used as a positive control.

[3] = system: IL17A; test: skin Resident Immune Cell Assay (sRICA), Th17 model, IL17A protein in media; format: cell-based; conditions: 100 uM solution in 1% DMSO/OD applied topically to human skin, media collected 24 hours after Th17 activation
In short: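 Human surgical skin, dermatomed to 750μm, 8 mm biopsies cultured air-liquid in transwells; RORγt inhibitors applied topically at 100 uM in 1% DMSO/OD, up to 24 h before Th17 activation by cytokine/antibody cocktail. IL17A measured in media 24 h post-activation by SiMoA, expressed as % of activated untreated skin.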

C[C@H]1C[C@H]2[C@@H]3CCC4=CC(=O)C=C[C@]4(C)[C@@]3(F)[C@@H](O)C[C@]2(C)[C@@]1(O)C(=O)CCl [Clobetasol]
Body weight change / systemic toxicity [1]: significant weight loss
CCL-20 gene expression [2]: 10% reduction
FoxP3 gene expression [2]: 6-fold increase
IL-17A gene expression [2]: 68% reduction
IL-19 gene expression [2]: 53% reduction
IL-36γ gene expression [2]: 60% reduction
S100A7 gene expression [2]: 62% reduction
SerapinB gene expression [2]: 65% reduction
TNFα gene expression [2]: 25% reduction

Cn1ncc2cc([C@@H](NC(=O)[C@@H]3CNC(=O)C3)C(=O)Nc3ccc([Si](C)(C)C)c(F)c3)ccc21 [drawing 79, (3S)-N-((1R)-2-((3-fluoro-4-(trimethylsilyl)phenyl)amino)-1-(1-methyl-1H-indazol-5-yl)-2-oxoethyl)-5-oxopyrrolidine-3-carboxamide]
inhibition at 100 µM ([3]; Homo sapiens, 24 h): 45.7%

Cn1ncc2cc([C@@H](NC(=O)[C@@H]3CNC(=O)C3)C(=O)Nc3ccc([Si](C)(C)C)c(F)c3)ccc21 [drawing 89, (3S)-N-(2-((3-fluoro-4-(trimethylsilyl)phenyl)amino)-1-(1-methyl-1H-indazol-5-yl)-2-oxoethyl)-5-oxopyrrolidine-3-carboxamide]
Activity in sRICA (% inhibition of IL17A) [3]: 36.72%
